Results on 28 compounds are retold here after patent US20160083357A1, “NOVEL TETRAZOLONE DERIVATIVES” (Hoffmann-La Roche Inc., priority 2013, published 2016).

Where two headings read alike, the source gives them in different places. Some results are limits rather than exact numbers.

As usually defined, the EC50 is the concentration at which the effect is half-maximal.

One experiment deals with T1, human CB2 receptors (Homo sapiens, UniProt P34972).
T1 construct: expressed in transfected cells; host or cells: CHO cells
T1 sequence (P34972 whole entry): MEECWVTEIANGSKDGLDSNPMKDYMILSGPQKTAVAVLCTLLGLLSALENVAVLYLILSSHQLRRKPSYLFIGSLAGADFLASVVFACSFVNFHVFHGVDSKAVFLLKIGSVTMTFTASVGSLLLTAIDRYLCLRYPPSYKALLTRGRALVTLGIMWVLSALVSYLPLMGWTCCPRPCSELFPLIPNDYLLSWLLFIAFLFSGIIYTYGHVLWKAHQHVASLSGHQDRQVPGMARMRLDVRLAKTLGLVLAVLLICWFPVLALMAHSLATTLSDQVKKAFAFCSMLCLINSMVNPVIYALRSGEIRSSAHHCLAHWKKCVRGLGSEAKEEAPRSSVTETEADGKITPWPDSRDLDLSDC
The experiment in a line: cAMP assay, human CB2. It is filed as cell-based. The protocol:
(§1) CHO cells expressing human CB1 or CB2 receptors are seeded 17-24 hours prior to the experiment 50.000 cells per well in a black 96 well plate with flat clear bottom (Corning Costar #3904) in DMEM (Invitrogen No. 31331), lx HT supplement, with 10% fetal calf serum and incubated at 5% CO2 and 37° C. in a humidified incubator. The growth medium was exchanged with Krebs Ringer Bicarbonate buffer with 1 mM IBMX and incubated at 30° C. for 30 min. Compounds were added to a final assay volume of 100 μl and incubated for 30 min at 30° C. Using the cAMP-Nano-TRF detection kit the assay (Roche Diagnostics) was stopped by the addition of 50 μl lysis reagent (Tris, NaCl, 1.5% Triton X100, 2.5% NP40, 10% NaN3) and 50 μl detection solutions (20 μM mAb Alexa700-cAMP 1:1, and 48 μM Ruthenium-2-AHA-cAMP) and shaken for 2 h at room temperature. The time-resolved energy transfer is measured by a TRF reader (Evotec Technologies GmbH), equipped with a ND:YAG laser as excitation source. The plate is measured twice with the excitation at 355 nm and at the emission with a delay of 100 ns and a gate of 100 ns, total exposure time 10 s at 730 (bandwidth 30 nm) or 645 nm (bandwidth 75 nm), respectively. The FRET signal is calculated as follows: FRET=T730-Alexa730-P(T645-B645) with P=Ru730-B730/Ru645-B645, where T730 is the test well measured at 730 nM, T645 is the test well measured at 645 nm, B730 and B645 are the buffer controls at 730 nm and 645 nm, respectively. cAMP content is determined from the function of a standard curve spanning from 10 μM to 0.13 nM cAMP.
(§2) EC50 values were determined using Activity Base analysis (ID Business Solution, Limited). The EC50 values for a wide range of cannabinoid agonists generated from this assay were in agreement with the values published in the scientific literature.
(In general: Changes in cAMP serve as a functional read-out for many G protein-coupled receptors.)

The next experiment concerns the target T2, human CB1 receptors (Homo sapiens, UniProt P21554).
T2 construct: expressed in transfected cells; host or cells: CHO cells
Description: cAMP assay, human CB1. The format is cell-based. How it is done:
as §1, §2

The mark [1] stands for this setting: functional cAMP assay, CHO cells expressing human CB2, read-out: Ec50: CB2 - hu cAMP.
The mark [2] stands for this setting: functional cAMP assay, CHO cells expressing human CB1, read-out: Ec50: CB1 - hu cAMP.

T2 sequence (P21554 whole entry): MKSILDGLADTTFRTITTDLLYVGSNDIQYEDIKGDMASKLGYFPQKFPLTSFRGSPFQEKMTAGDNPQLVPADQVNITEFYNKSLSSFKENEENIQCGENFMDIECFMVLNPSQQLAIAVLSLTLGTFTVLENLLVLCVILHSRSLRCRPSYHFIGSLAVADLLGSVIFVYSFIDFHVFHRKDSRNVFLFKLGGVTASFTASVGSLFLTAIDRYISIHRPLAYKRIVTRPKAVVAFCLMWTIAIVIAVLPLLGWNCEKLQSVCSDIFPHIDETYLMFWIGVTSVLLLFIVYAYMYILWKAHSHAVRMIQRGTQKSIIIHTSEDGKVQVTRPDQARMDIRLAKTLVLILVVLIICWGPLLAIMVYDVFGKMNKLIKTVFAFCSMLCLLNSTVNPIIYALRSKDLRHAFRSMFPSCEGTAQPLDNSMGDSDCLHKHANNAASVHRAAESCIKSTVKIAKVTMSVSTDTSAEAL

On to `O=C(N1CCS(=O)(=O)CC1)n1nnn(-c2cccc(F)c2)c1=O` [Example 29, 1-(1,1-Dioxo-1λ6-thiomorpholine-4-carbonyl)-4-(3-fluoro-phenyl)-1,4-dihydro-tetrazol-5-one], for which the EC50 at human CB2 receptors (setting [1]) was 41.6 nM; at human CB1 receptors (setting [2]), > 10000 nM.
As to `O=C(N1CCN(c2cnccn2)CC1)n1nnn(-c2cccc(F)c2)c1=O` [Example 30, 1-(3-Fluoro-phenyl)-4-(2,3,5,6-tetrahydro-[1,2′]bipyrazinyl-4-carbonyl)-1,4-dihydro-tetrazol-5-one], the EC50 was 205 nM at human CB2 receptors (setting [1]) and > 10000 nM at human CB1 receptors (setting [2]).
The matching figures for `N#CCCN(C(=O)n1nnn(-c2cccc(F)c2)c1=O)C1CC1` [Example 31, 4-(3-Fluoro-phenyl)-5-oxo-4,5-dihydro-tetrazole-1-carboxylic acid (2-cyano-ethyl)-cyclopropyl-amide]: 166 nM and > 10000 nM.
The matching figures for `CN(C(=O)n1nnn(-c2cccc(F)c2)c1=O)c1ccccn1` [Example 32, 4-(3-Fluoro-phenyl)-5-oxo-4,5-dihydro-tetrazole-1-carboxylic acid methyl-pyridin-2-yl-amide]: 152 nM and > 10000 nM.
Regarding `CN(C(=O)n1nnn(-c2cccc(F)c2)c1=O)c1cccnc1` [Example 33, 4-(3-Fluoro-phenyl)-5-oxo-4,5-dihydro-tetrazole-1-carboxylic acid methyl-pyridin-3-yl-amide], the EC50 on human CB2 receptors (setting [1]) was 25 nM; at human CB1 receptors (setting [2]), > 10000 nM.
For the compound `COCC1CCCCN1C(=O)n1nnn(-c2cccc(F)c2)c1=O` (centres unmarked) [Example 34, 1-(3-Fluoro-phenyl)-4-(2-methoxymethyl-piperidine-1-carbonyl)-1,4-dihydro-tetrazol-5-one], the values for the EC50 on human CB2 receptors (setting [1]) and on human CB1 receptors (setting [2]) were 19 nM and > 10000 nM, respectively.
The matching figures for `CN(C(=O)n1nnn(C2CC2)c1=O)c1cccnc1` [Example 35, 4-Cyclopropyl-5-oxo-4,5-dihydro-tetrazole-1-carboxylic acid methyl-pyridin-3-yl-amide]: 161 nM and > 10000 nM.
The matching figures for `CCCn1nnn(C(=O)N(C)c2cccnc2)c1=O` [Example 36, 5-Oxo-4-propyl-4,5-dihydro-tetrazole-1-carboxylic acid methyl-pyridin-3-yl-amide]: 874 nM and > 10000 nM.
As for `CC(C)Cn1nnn(C(=O)N(C)c2cccnc2)c1=O` [Example 37, 4-Isobutyl-5-oxo-4,5-dihydro-tetrazole-1-carboxylic acid methyl-pyridin-3-yl-amide], the EC50 was 407 nM on human CB2 receptors (setting [1]) and > 10000 nM on human CB1 receptors (setting [2]).
Regarding `CC(=O)N1CCN(C(=O)n2nnn(-c3cccc(F)c3)c2=O)CC1` [Example 38, 1-(4-Acetyl-piperazine-1-carbonyl)-4-(3-fluoro-phenyl)-1,4-dihydro-tetrazol-5-one], the EC50 is 92 nM at human CB2 receptors (setting [1]) and > 10000 nM on human CB1 receptors (setting [2]).
In the case of `CCC(=O)N1CCN(C(=O)n2nnn(-c3cccc(F)c3)c2=O)CC1` [Example 39, 1-(3-Fluoro-phenyl)-4-(4-propionyl-piperazine-1-carbonyl)-1,4-dihydro-tetrazol-5-one], the EC50 at human CB2 receptors (setting [1]) is 497 nM; at human CB1 receptors (setting [2]) it was > 10000 nM.
The matching figures for `CCN(CC)C(=O)N1CCN(C(=O)n2nnn(-c3cccc(F)c3)c2=O)CC1` [Example 40, 4-[4-(3-Fluoro-phenyl)-5-oxo-4,5-dihydro-tetrazole-1-carbonyl]-piperazine-1-carboxylic acid diethylamide]: 52.8 nM and > 10000 nM.
Take `O=C(N1CCC(c2ccccc2)C1)n1nnn(-c2cccc(F)c2)c1=O` (centres unmarked) [Example 41, 1-(3-Fluoro-phenyl)-4-(3-phenyl-pyrrolidine-1-carbonyl)-1,4-dihydro-tetrazol-5-one]: the EC50 on human CB2 receptors (setting [1]) is 3.2 nM; on human CB1 receptors (setting [2]), > 10000 nM.
The matching figures for `CC(=O)N[C@H]1CCN(C(=O)n2nnn(-c3cccc(F)c3)c2=O)C1` [Example 42, N—{(S)-1-[4-(3-Fluoro-phenyl)-5-oxo-4,5-dihydro-tetrazole-1-carbonyl]-pyrrolidin-3-yl}-acetamide]: 91.1 nM and > 10000 nM.
The matching figures for `CC(=O)N[C@@H]1CCN(C(=O)n2nnn(-c3cccc(F)c3)c2=O)C1` [Example 43, N—{(R)-1-[4-(3-Fluoro-phenyl)-5-oxo-4,5-dihydro-tetrazole-1-carbonyl]-pyrrolidin-3-yl}-acetamide]: 25.8 nM and > 10000 nM.
The matching figures for `CCN(C(C)=O)C1CCN(C(=O)n2nnn(-c3cccc(F)c3)c2=O)C1` (centres unmarked) [Example 44, N-Ethyl-N-{1-[4-(3-fluoro-phenyl)-5-oxo-4,5-dihydro-tetrazole-1-carbonyl]-pyrrolidin-3-yl}-acetamide]: 13.8 nM and > 10000 nM.
With `O=C(N1CCC(F)(F)C1)n1nnn(-c2cccc(F)c2)c1=O` [Example 45, 1-(3,3-Difluoro-pyrrolidine-1-carbonyl)-4-(3-fluoro-phenyl)-1,4-dihydro-tetrazol-5-one], the EC50 was 797 nM at human CB2 receptors (setting [1]) and > 10000 nM at human CB1 receptors (setting [2]).
The matching figures for `CC1(C)CCCN1C(=O)n1nnn(-c2cccc(F)c2)c1=O` [Example 46, 1-(2,2-Dimethyl-pyrrolidine-1-carbonyl)-4-(3-fluoro-phenyl)-1,4-dihydro-tetrazol-5-one]: 90.2 nM and > 10000 nM.
The matching figures for `CC1(C)CCN(C(=O)n2nnn(-c3cccc(F)c3)c2=O)C1` [Example 47, 1-(3,3-Dimethyl-pyrrolidine-1-carbonyl)-4-(3-fluoro-phenyl)-1,4-dihydro-tetrazol-5-one]: 2.7 nM and > 10000 nM.
For the compound `CC1CCCN1C(=O)n1nnn(-c2cccc(F)c2)c1=O` (centres unmarked) [Example 48, 1-(3-Fluoro-phenyl)-4-(2-methyl-pyrrolidine-1-carbonyl)-1,4-dihydro-tetrazol-5-one], the EC50 on human CB2 receptors (setting [1]) is 6.7 nM; on human CB1 receptors (setting [2]), > 10000 nM.
The matching figures for `CC(=O)N(C)C1CCN(C(=O)n2nnn(-c3cccc(F)c3)c2=O)C1` (centres unmarked) [Example 49, N-{1-[4-(3-Fluoro-phenyl)-5-oxo-4,5-dihydro-tetrazole-1-carbonyl]-pyrrolidin-3-yl}-N-methyl-acetamide]: 14.3 nM and > 10000 nM.
The matching figures for `CCOC(=O)N1CCN(C(=O)n2nnn(-c3cccc(F)c3)c2=O)CC1` [Example 50, 4-[4-(3-Fluoro-phenyl)-5-oxo-4,5-dihydro-tetrazole-1-carbonyl]-piperazine-1-carboxylic acid ethyl ester]: 567 nM and > 10000 nM.
The matching figures for `N#C[C@@H]1CCCN1C(=O)n1nnn(-c2cccc(F)c2)c1=O` [Example 51, (S)-1-[4-(3-Fluoro-phenyl)-5-oxo-4,5-dihydro-tetrazole-1-carbonyl]-pyrrolidine-2-carbonitrile]: 154 nM and > 10000 nM.
On to `N#C[C@H]1CCCN1C(=O)n1nnn(-c2cccc(F)c2)c1=O` [Example 52, (R)-1-[4-(3-Fluoro-phenyl)-5-oxo-4,5-dihydro-tetrazole-1-carbonyl]-pyrrolidine-2-carbonitrile], for which the EC50 on human CB2 receptors (setting [1]) was 129 nM; at human CB1 receptors (setting [2]) it was > 10000 nM.
As to `CCN(Cc1ccccc1)C(=O)n1nnn(-c2ccc(Cl)nc2)c1=O` [Example 53, 4-(6-Chloro-pyridin-3-yl)-5-oxo-4,5-dihydro-tetrazole-1-carboxylic acid benzyl-ethyl-amide], the figures for the EC50 at human CB2 receptors and at human CB1 receptors were 1 nM and > 10000 nM, respectively.
Turning to `COCCN(C)C(=O)n1nnn(-c2cccc(F)c2)c1=O` [Example 54, 4-(3-Fluoro-phenyl)-5-oxo-4,5-dihydro-tetrazole-1-carboxylic acid (2-methoxy-ethyl)-methyl-amide], the EC50 was 1.3 nM on human CB2 receptors (setting [1]) and > 10000 nM on human CB1 receptors (setting [2]).
The matching figures for `COCCN(C(=O)n1nnn(-c2cccc(F)c2)c1=O)C(C)C` [Example 55, 4-(3-Fluoro-phenyl)-5-oxo-4,5-dihydro-tetrazole-1-carboxylic acid isopropyl-(2-methoxy-ethyl)-amide]: 4.1 nM and > 10000 nM.
In the case of `CCCN(CCOC)C(=O)n1nnn(-c2cccc(F)c2)c1=O` [Example 56, 4-(3-Fluoro-phenyl)-5-oxo-4,5-dihydro-tetrazole-1-carboxylic acid (2-methoxy-ethyl)-propyl-amide], the results for the EC50 on human CB2 receptors and on human CB1 receptors were 17 nM and > 10000 nM, respectively.
